{
  "source": "paper PMC3169411",
  "about": "“Structure of aldose reductase from Giardia lamblia” (Acta Crystallographica Section F: Structural Biology and …, 2011)",
  "target": "T1, G. lamblia aldose reductase (Giardia duodenalis, UniProt A8BGX6)",
  "T1 construct": "gene GL50803_007260; full-length; E. coli BL21(DE3); observed Ser0-Asp313; dimer",
  "T1 sequence (A8BGX6 1-313)": "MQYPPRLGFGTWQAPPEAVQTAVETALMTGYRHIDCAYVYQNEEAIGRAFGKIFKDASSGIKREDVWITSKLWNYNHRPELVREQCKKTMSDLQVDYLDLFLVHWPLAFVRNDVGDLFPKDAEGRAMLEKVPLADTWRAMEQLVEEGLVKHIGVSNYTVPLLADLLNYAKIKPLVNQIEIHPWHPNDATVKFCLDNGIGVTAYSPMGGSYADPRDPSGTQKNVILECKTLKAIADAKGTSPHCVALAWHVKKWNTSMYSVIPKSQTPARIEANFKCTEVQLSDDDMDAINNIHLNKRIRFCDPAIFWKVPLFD",
  "assay": "X-ray crystallography, […] Å",
  "assay_type": "binding",
  "details": "co-purified (none added); crystals from 20% PEG 3350, 200 mM sodium formate, 100 mM Bis-Tris propane; cofactor site, Arg269 and His242",
  "data": [
    {"smiles": "NC(=O)c1ccc[n+]([C@@H]2O[C@H](COP(=O)(O)OP(=O)(O)OC[C@H]3O[C@@H](n4cnc5c(N)ncnc54)[C@H](OP(=O)(O)O)[C@@H]3O)[C@@H](O)[C@H]2O)c1", "note": "[NADP^+]", "values": [
      {"measurement": "X-ray crystallography, 1.75 Å", "result": "One NADP^+ molecule and one ethylene glycol molecule were modelled in each chain"}
    ]}
  ]
}
